Data: patent publication US20140158116A1, “INHIBITING TRPA1 FOR THE TREATMENT OF ASTHMA” (Cubist Pharmaceuticals, Inc., priority 2012, published 2014)
Read-outs that look alike come from different tables or passages of the source.

Experiments:
dTRPA1 = dTRPA1 (Canis lupus familiaris, UniProt A0A8I3Q1Q7); experiment: Whole-cell patch clamp block of inward current through dTRPA1; format: cell-based, Dog
Protocol: (§1) Data for TRPA1 inhibition and the selectivity of TRPA1 inhibition was obtained by this method for the compound of Formula (Ia) and included in Table 1 and Table 2. All currents were recorded in whole-cell configuration using EPC-9 and EPC-10 amplifiers and Patchmaster software (HEKA). […] The standard pipette solution consisted of 140 mM CsAsp, 10 mM EGTA, 10 mM HEPES, 2.27 mM MgCl2, 1.91 mM CaCl2, 4 mM MgATP, and 0.1-0.3 mM Na2GTP, with pH adjusted to 7.2 with CsOH. In addition, a solution containing 145 mM CsCl, 10 mM HEPES, 10 mM EGTA and 1 mM MgCl2 (pH 7.2 adjusted with CsOH) can be used. The standard bath solution contained 150 mM NaCl, 10 mM HEPES, 10 mM glucose, 4.5 mM KCl, 1 mM EGTA, 3 mM MgCl2, with pH adjusted to 7.4 with NaOH. In some instances, 2 mM CaCl2 was added in place of EGTA and the concentration of MgCl2 was reduced to 1 mM.
Data were collected either by continuous recordings at −60 mV or by applying voltage ramps from a holding potential of 0 mV every 4 s. Continuous recordings were collected at 400 Hz and digitally filtered off-line at 10 Hz for presentation. Voltage ramps were applied from −100 mV to 100 mV over the course of 400 ms, and data were collected at 10 kHz and filtered at 2.9 kHz. Inward and outward currents were analyzed from the ramps at −80 and 80 mV, respectively. Liquid junction potential correction was not used.
Solutions were switched using a gravity-fed continuous focal perfusion system. To achieve rapid temperature changes, two temperature control and perfusion systems were employed simultaneously. For temperatures ≧22° C., a Warner Instruments bipolar temperature controller (TC-344B) and inline heater (SHM-8) were used. […] Temperatures were confirmed using a thermistor (Warner Instruments, TA-29), with temperatures at the recorded cell estimated to be within +/−2° C. of those reported.
IC50 of compounds was estimated by testing each compound at 5 micromolar and 500 nanomolar. […] IC50 for compounds between 500 nanomolar and 5 micromolar was similarly estimated. […]

hERG = hERG (Homo sapiens, UniProt Q12809); experiment: Patch clamp selectivity, hERG; format: cell-based
hERG, sequence (Q12809 whole entry): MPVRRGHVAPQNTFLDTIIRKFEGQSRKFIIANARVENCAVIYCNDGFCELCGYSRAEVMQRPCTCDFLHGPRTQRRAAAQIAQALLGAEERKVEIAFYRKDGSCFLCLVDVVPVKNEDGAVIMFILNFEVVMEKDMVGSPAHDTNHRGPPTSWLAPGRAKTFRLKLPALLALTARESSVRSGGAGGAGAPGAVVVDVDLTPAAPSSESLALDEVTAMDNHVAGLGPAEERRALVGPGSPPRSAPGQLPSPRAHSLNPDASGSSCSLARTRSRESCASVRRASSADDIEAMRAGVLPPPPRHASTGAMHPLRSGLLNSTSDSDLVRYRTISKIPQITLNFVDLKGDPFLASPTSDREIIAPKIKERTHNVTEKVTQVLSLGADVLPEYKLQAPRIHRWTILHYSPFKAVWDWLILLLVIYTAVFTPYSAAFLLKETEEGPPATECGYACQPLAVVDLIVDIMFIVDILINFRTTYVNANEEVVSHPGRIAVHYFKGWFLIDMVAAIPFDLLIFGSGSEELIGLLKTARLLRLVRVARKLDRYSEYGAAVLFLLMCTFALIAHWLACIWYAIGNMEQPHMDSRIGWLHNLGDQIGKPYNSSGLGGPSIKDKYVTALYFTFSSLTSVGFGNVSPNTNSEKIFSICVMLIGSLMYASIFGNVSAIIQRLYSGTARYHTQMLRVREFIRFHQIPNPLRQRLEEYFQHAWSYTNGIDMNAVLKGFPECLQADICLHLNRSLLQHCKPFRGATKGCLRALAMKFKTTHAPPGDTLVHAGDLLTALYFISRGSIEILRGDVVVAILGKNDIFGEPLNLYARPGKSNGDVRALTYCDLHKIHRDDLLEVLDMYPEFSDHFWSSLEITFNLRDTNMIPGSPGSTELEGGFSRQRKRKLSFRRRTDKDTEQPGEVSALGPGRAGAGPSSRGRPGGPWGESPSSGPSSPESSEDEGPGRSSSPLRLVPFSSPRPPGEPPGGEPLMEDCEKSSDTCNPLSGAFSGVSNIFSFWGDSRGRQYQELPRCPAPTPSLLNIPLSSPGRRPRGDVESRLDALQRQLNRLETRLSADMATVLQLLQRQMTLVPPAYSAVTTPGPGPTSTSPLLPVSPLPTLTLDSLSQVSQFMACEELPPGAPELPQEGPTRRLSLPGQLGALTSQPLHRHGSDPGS
Protocol: as §1
Data were collected either by continuous recordings at −60 mV or by applying voltage ramps from a holding potential of 0 mV every 4 s. […] Inward and outward currents were analyzed from the ramps at −80 and 80 mV, respectively. […]
Solutions were switched using a gravity-fed continuous focal perfusion system. […] Temperatures were confirmed using a thermistor (Warner Instruments, TA-29), with temperatures at the recorded cell estimated to be within +/−2° C. of those reported. […]

[1] = system: Ascaris suum antigen-induced pulmonary resistance; experiment: Sheep allergic asthma model, pulmonary resistance (RL) after Ascaris suum antigen; format: in vivo
Protocol: Compounds were tested in the sheep model of experimental asthma reported in Abraham W M, Asthma & Rhinitis, 2000: 1205-1227 incorporated herein by reference in its entirety.
The unsedated sheep were restrained in a cart in the prone position with their heads immobilized. After topical anesthesia of the nasal passages with 2% lidocaine solution, a balloon catheter was advanced through one nostril into the lower esophagus. The sheep were intubated with a cuffed endotracheal tube through the other nostril. Pleural pressure was estimated with the esophageal balloon catheter. Lateral pressure in the trachea was measured with a sidehole catheter (inner dimension, 2.5 mm) advanced through and positioned distal to the tip of the endotracheal tube. Transpulmonary pressure, the difference between tracheal and pleural pressure, was measured with a differential pressure transducer catheter system. For the measurement of pulmonary resistance (RL), the proximal end of the endotracheal tube was connected to a pneumotachograph. […]
Baseline concentration response curves to aerosol Carbachol were obtained 1 to 3 days before commencement of drug/vehicle treatment. […] Baseline values of pulmonary resistance (RL) were obtained within 30 minutes of treatment and then re-measured 30 minutes before antigen challenge. […]

hTRPA1 = hTRPA1 (Homo sapiens, UniProt O75762); experiment: hTrpA1 IC50 measured in 1% RSA (rat serum albumin); format: cell-based
hTRPA1, sequence (O75762 whole entry): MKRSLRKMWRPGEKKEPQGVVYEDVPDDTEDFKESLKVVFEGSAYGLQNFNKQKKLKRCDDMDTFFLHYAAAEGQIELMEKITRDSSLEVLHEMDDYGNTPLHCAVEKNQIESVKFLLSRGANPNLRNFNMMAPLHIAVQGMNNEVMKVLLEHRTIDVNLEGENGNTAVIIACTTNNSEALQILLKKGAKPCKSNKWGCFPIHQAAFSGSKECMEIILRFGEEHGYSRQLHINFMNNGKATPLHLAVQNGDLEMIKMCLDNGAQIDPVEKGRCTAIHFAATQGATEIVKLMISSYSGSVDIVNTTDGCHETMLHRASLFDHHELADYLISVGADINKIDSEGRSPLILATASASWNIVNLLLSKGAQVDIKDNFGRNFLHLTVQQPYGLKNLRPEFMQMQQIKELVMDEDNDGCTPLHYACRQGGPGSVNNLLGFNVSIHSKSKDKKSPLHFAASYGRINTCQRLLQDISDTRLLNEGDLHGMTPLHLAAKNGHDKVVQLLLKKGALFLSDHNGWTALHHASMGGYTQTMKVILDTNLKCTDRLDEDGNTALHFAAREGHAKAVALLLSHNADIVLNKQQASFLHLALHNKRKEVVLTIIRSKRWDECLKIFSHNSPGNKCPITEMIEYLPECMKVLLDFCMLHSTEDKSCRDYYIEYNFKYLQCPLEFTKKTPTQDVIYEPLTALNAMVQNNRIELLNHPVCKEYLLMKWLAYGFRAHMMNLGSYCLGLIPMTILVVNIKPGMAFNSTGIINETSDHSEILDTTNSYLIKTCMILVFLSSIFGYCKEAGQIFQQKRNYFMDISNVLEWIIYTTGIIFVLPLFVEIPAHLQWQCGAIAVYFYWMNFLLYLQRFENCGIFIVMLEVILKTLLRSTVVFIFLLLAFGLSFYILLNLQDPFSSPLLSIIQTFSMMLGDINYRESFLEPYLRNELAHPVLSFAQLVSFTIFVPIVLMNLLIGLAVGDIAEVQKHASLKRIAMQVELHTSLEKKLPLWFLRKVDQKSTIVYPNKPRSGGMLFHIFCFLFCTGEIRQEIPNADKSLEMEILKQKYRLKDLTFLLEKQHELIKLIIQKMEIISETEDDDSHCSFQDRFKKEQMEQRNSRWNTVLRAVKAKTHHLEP

dTRPA1, sequence (A0A8I3Q1Q7 1-1118): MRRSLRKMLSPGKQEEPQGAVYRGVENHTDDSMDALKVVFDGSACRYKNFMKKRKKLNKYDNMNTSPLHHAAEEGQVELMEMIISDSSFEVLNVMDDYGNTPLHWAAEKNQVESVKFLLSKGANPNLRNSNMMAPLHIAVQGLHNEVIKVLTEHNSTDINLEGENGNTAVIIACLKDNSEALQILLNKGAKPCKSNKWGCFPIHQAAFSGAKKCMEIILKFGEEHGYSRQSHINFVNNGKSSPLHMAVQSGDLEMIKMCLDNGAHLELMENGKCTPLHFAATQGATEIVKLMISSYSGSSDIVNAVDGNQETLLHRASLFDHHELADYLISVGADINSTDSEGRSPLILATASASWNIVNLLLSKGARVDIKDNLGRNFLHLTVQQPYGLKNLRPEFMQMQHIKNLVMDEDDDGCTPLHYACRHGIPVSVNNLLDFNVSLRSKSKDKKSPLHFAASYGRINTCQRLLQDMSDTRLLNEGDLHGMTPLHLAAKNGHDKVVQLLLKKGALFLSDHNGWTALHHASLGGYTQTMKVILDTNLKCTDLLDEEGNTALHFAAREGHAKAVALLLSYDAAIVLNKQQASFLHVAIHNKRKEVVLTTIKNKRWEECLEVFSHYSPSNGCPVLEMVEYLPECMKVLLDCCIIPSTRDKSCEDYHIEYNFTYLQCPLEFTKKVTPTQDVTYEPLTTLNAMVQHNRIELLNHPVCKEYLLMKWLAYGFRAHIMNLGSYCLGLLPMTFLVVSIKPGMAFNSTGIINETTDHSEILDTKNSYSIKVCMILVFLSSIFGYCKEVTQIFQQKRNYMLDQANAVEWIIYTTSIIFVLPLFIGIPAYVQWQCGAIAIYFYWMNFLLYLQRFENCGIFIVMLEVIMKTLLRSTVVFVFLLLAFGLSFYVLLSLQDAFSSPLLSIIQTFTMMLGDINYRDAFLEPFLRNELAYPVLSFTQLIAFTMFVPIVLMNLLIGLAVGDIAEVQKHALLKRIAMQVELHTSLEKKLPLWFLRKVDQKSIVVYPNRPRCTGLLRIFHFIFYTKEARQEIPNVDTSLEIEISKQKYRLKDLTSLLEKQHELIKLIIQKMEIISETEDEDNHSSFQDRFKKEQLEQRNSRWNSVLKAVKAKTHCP

IC50 (dTRPA1; class symbol, read-out: Potency (IC50) Dog): ≥ 100 nM
IC50 (dTRPA1; dTRPA1, Dog, current activation 10 micromolar AITC, read-out: IC50 Inward current): 102 ± 20 nM
IC50 (hTRPA1): 5300 nM
SMILES: C[C@H]1CCCN1c1ncc(-c2cccc(NC(=O)Cn3cnc4c3c(=O)n(C)c(=O)n4C)n2)cn1 [Formula (Ia)]
IC50 (hERG; Voltage, Tail current (−40 mV)): > 10000 nM
selectivity ratio (hERG; human, pH 7.4, read-out: Fold Selectivity Compared to TRPA1): > 100
inhibition of late phase pulmonary resistance response ([1]; 5 mg/kg PO daily for 4 days): ~45%
inhibition of late phase pulmonary resistance response ([1]; 10 mg/kg PO daily for 4 days): approximately 75%
